Assay results published in patent US20240050421A1, “PHARMACEUTICAL FORMULATIONS OF A PHENOLIC TRPV1 AGONIST PRODRUG” (Concentric Analgesics, Inc., priority 2020, published 2024).

Assay: Water solubility / hydrophilicity compared with capsaicin
Assay type: physicochemical
Conditions: general statement, no method or figures given

For CNCC1CCCCN1C(=O)Oc1ccc(CNC(=O)CCCC/C=C/C(C)C)cc1OC.Cl (stereo not shown) [Compound 1, (E)-2-methoxy-4-((8-methylnon-6-enamido)methyl)phenyl 2-((methylamino)methyl)piperidine-1-carboxylate], the hydrophilicity/water solubility was “significantly higher hydrophilicity/water solubility than capsaicin”.
